13 molecules from ChEMBL document CHEMBL3217548, “Biological activity and DNA binding studies of 2-substituted benzimidazo[1,2-a]quinolines bearing different amino side chains” (Medchemcomm, 2013) can be followed below.

Activity calls are given as the source filed them. The rule behind the calls is not given here.

Data set [1] concerns DNA. Kind of data set: Induction of DNA damage in plasmid DNA in E. coli S30 cell-free system assessed as inhibition of EGFP translation at 50 uM after 1 hr by fluorescence assay.
In data set [2] the test system is Escherichia coli. The data set can be described thus: Induction of topoisomerase1-mediated Escherichia coli pUC19 plasmid relaxation at 20 to 50 uM incubated for 45 mins prior to topoisomerase1 addition by agarose gel electrophoresis.
Data set [3] deals with HCT-116. Kind of data set: Cell cycle arrest in human HCT116 cells assessed as accumulation at G2/M phase at 0.1 uM after 48 hrs by propidium iodide staining-based FACS analysis (reference value: 28 +/- 3 %). It counts as functional. (In general: In flow cytometry, cells or beads pass a laser one at a time.)
The subject of data set [4] is HCT-116. The data set can be described thus: Cell cycle arrest in human HCT116 cells assessed as accumulation at subG1 phase at 5 uM after 24 hrs by propidium iodide staining-based FACS analysis. Type of data set: functional.
In data set [5] the test system is HCT-116. Kind of data set: Cell cycle arrest in human HCT116 cells assessed as accumulation at S phase at 1 uM after 48 hrs by propidium iodide staining-based FACS analysis (reference value: 12+/- 5 %). Type of data set: functional.
Data set [6] deals with Calf thymus DNA. The data set can be described thus: Binding affinity to calf thymus DNA assessed as hypochromic shift at 20 uM by UV/visible spectrophotometry. Type of data set: nucleic-acid assay. The settings on record: Bos taurus.
In data set [7] the test system is HCT-116. The data set can be described thus: Cell cycle arrest in human HCT116 cells assessed as accumulation at G1 phase at 1 uM after 24 hrs by propidium iodide staining-based FACS analysis (reference value: 23 +/- 2 %). Type of data set: functional.
In data set [8] the test system is HCT-116. Kind of data set: Cell cycle arrest in human HCT116 cells assessed as accumulation at subG1 phase at 0.1 uM after 24 hrs by propidium iodide staining-based FACS analysis (reference value: 2 +/- 0.1 %). Type of data set: functional.
Data set [9] has as its system HCT-116. The data set can be described thus: Cell cycle arrest in human HCT116 cells assessed as accumulation at subG1 phase at 1 uM after 24 hrs by propidium iodide staining-based FACS analysis (reference value: 2 +/- 0.1 %). It counts as functional.
Data set [10] deals with HCT-116. Kind of data set: Cell cycle arrest in human HCT116 cells assessed as accumulation at subG1 phase after 24 hrs by propidium iodide staining-based FACS analysis. Type of data set: functional.
In data set [11] the test system is Calf thymus DNA. The data set can be described thus: Binding affinity to calf thymus DNA assessed as change in melting temperature at 0.5 drug/DNA ratio by spectrophotometry. It counts as nucleic-acid assay. The settings on record: Bos taurus.
Data set [12] concerns HCT-116. Kind of data set: Cell cycle arrest in human HCT116 cells assessed as accumulation at G1 phase at 0.1 uM after 48 hrs by propidium iodide staining-based FACS analysis (reference value: 60 +/- 2 %). Type of data set: functional.
In data set [13] the test system is HCT-116. Kind of data set: Cell cycle arrest in human HCT116 cells assessed as accumulation at S phase at 0.1 uM after 48 hrs by propidium iodide staining-based FACS analysis (reference value: 12+/- 5 %). It counts as functional.
Data set [14] deals with HCT-116. The data set can be described thus: Cell cycle arrest in human HCT116 cells assessed as accumulation at G1 phase at 0.1 uM after 24 hrs by propidium iodide staining-based FACS analysis (reference value: 23 +/- 2 %). Type of data set: functional.
Data set [15] relates to HCT-116. The data set can be described thus: Cell cycle arrest in human HCT116 cells assessed as accumulation at S phase at 0.1 uM after 24 hrs by propidium iodide staining-based FACS analysis (reference value: 48 +/- 6 %). Type of data set: functional.
In data set [16] the test system is HCT-116. Kind of data set: Cell cycle arrest in human HCT116 cells assessed as accumulation at S phase at 1 uM after 24 hrs by propidium iodide staining-based FACS analysis (reference value: 48 +/- 6 %). It counts as functional.
Data set [17] has as its system HCT-116. The data set can be described thus: Cell cycle arrest in human HCT116 cells assessed as accumulation at subG1 phase at 1 uM after 48 hrs by propidium iodide staining-based FACS analysis (reference value: 5 +/- 2 %). Type of data set: functional.
In data set [18] the test system is HCT-116. The data set can be described thus: Cell cycle arrest in human HCT116 cells assessed as accumulation at G2/M phase at 1 uM after 24 hrs by propidium iodide staining-based FACS analysis (reference value: 29 +/- 8 %). It counts as functional.
Data set [19] concerns HCT-116. Kind of data set: Cell cycle arrest in human HCT116 cells assessed as accumulation at subG1 phase at 0.1 uM after 48 hrs by propidium iodide staining-based FACS analysis (reference value: 5 +/- 2 %). Type of data set: functional.
Data set [20] has as its system Escherichia coli. The data set can be described thus: Binding affinity to Escherichia coli pUC19 plasmid assessed as induction of topoisomerase1-mediated DNA relaxation at 1 uM incubated for 45 mins prior to topoisomerase1 addition by agarose gel electrophoresis.
Data set [21] is described as follows: Drug uptake in human H460 cell cytoplasm at 10 uM after 2 hrs by fluorescence microscopy. As to conditions: h460, 2 h. It counts as ADME, cell-based.
Data set [22] concerns the target T1, DNA topoisomerase 1 (Homo sapiens) (UniProt P11387).
T1 sequence (whole entry): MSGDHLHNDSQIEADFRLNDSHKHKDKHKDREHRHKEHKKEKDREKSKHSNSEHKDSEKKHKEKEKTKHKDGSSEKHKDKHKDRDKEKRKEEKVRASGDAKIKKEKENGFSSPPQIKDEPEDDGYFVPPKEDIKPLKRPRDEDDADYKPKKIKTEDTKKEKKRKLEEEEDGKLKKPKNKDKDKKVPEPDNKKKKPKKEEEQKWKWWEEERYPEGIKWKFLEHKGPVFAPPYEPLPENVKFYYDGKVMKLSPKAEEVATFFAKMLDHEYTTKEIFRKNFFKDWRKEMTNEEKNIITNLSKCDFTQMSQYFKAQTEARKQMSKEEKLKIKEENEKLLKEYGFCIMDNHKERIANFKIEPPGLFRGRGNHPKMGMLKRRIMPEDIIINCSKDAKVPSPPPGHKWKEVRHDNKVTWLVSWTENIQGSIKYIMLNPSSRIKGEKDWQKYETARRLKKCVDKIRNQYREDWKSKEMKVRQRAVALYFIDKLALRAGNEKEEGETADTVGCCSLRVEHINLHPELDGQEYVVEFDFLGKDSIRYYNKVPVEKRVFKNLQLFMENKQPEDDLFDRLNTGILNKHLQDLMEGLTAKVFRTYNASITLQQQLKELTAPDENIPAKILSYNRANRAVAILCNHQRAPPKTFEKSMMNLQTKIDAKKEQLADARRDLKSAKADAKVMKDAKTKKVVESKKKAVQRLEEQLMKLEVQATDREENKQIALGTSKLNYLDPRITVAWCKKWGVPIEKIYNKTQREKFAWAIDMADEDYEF
The data set can be described thus: Inhibition of human DNA topoisomerase 1 assessed as inhibition of DNA cleavage.

Data set [23] deals with MCF7. The data set can be described thus: Cytotoxicity against human MCF7 cells after 72 hrs by MTT assay. It counts as functional, cell-based. The settings on record: MCF7, 72 h. Background: Tetrazolium assays rely on reduction of a dye to a coloured formazan, in cell work by metabolically active cells.
Data set [24] concerns HCT-116. Kind of data set: Cell cycle arrest in human HCT116 cells assessed as accumulation at G1 phase at 1 uM after 48 hrs by propidium iodide staining-based FACS analysis (reference value: 60 +/- 2 %). Type of data set: functional.
The species named for data set [25] is Homo sapiens. Kind of data set: Inhibition of human DNA topoisomerase 2 assessed as inhibition of DNA cleavage.
In data set [26] the test system is HCT-116. Kind of data set: Cell cycle arrest in human HCT116 cells assessed as accumulation at G2/M phase at 0.1 uM after 24 hrs by propidium iodide staining-based FACS analysis (reference value: 29 +/- 8 %). Type of data set: functional.
In data set [27] the test system is Calf thymus DNA. The data set can be described thus: Binding affinity to calf thymus DNA assessed as DNA intercalation at 1 to 50 uM by circular dichroism analysis. Type of data set: nucleic-acid assay. The settings on record: Bos taurus. (In general: Circular dichroism is widely used to follow secondary structure.)
Data set [28] deals with HCT-116. Kind of data set: Cell cycle arrest in human HCT116 cells assessed as accumulation at G2/M phase at 1 uM after 48 hrs by propidium iodide staining-based FACS analysis (reference value: 28 +/- 3 %). It counts as functional.
Data set [29] in a line: Cytotoxicity against human H460 cells after 72 hrs by MTT assay. It counts as functional, cell-based. As to conditions: NCI-H460, 72 h.
Data set [30] deals with HCT-116. Kind of data set: Cytotoxicity against human HCT116 cells after 72 hrs by MTT assay. It counts as functional, cell-based. As to conditions: HCT-116, 72 h.
The test system of data set [31] is Escherichia coli. Kind of data set: Binding affinity to Escherichia coli pUC19 plasmid assessed as nicked DNA at 5 to 50 uM by ethidium bromide staining-based agarose gel electrophoresis.
The subject of data set [32] is Nucleic Acid. The data set can be described thus: DNA intercalating activity at Escherichia coli pUC19 plasmid assessed as effect on global structure of DNA helix at 5 to 50 uM incubated for 45 mins prior to topoisomerase1 addition by agarose gel electrophoresis. Type of data set: nucleic-acid assay.

As a reminder, the inhibition is the share of the control response that was lost under treatment. In the case of `O=C(O)CCCc1ccc(N(CCCl)CCCl)cc1` [CHLORAMBUCIL], the inhibition at 50 µM in [1] came out at 45%.
The ΔTm is the change in melting temperature against a reference sample. The IC50 is the point on the concentration scale where inhibition reaches its midpoint. `CC(C)CNc1ccc2cc(C#N)c3nc4ccccc4n3c2c1`: the result in data set [2], in data set [22], in [25] and in data set [27] was inactive. Further, the Activity in data set [3] came out at 17%; in data set [4], 40%; in data set [5] it was 0%; in [7], 7%; in data set [8] it was 4%; in [9] it was 16%. The Activity result in data set [10] was “Dose-dependent effect”; in data set [12], 62%; in [13] it was 21%; in [14] it was 14%; in [15], 44%; in data set [16], 8%. Moreover, the Activity is listed as 30% in data set [17]; 85% in data set [18]; 6% in [19]; 10% in [24]; 42% in [26]; 90% in data set [28]. Moreover, the outcome in data set [6], in [20] and in data set [31] was Active. In data set [11], the ΔTm came out at 3.8 °C. The Drug uptake result in data set [21] was “Active”. In addition, the results for the IC50 in [23], in data set [29] and in data set [30] were 400 nM, 300 nM and 600 nM, respectively. Moreover, the inhibition at 50 µM in [1] was determined as 17%.
On to `CCCN(CCC)c1ccc2cc(C#N)c3nc4ccccc4n3c2c1`, for which the results for the IC50 in data set [23], in data set [29] and in [30] were 2500 nM, 300 nM and 500 nM, respectively.
In the case of `CCCCNc1ccc2cc(C#N)c3nc4ccccc4n3c2c1`, the IC50 amounted to 1000 nM in data set [23], 2000 nM in data set [29] and 4000 nM in data set [30].
On the same counts, the results for `CCN(CC)CCNc1ccc2cc(C#N)c3nc4ccccc4n3c2c1` are 300 nM, 200 nM and 200 nM.
`CCN(CC)c1ccc2cc(C#N)c3nc4ccccc4n3c2c1`: the IC50 in [23] was 2000 nM; in [29], 1600 nM; in data set [30] it was 2000 nM.
As to `CCCCCN(CCCCC)c1ccc2cc(C#N)c3nc4ccccc4n3c2c1`, the outcome in data set [32], in data set [22], in data set [25] and in data set [27] was inactive. Besides, in [11], the ΔTm was 0 °C. The IC50 was 39000 nM in data set [23], above 10000 nM in [29] and above 10000 nM in [30]. In data set [31], the result was Active.
Turning to `N#Cc1cc2ccc(N3CCCCC3)cc2n2c1nc1ccccc12`, the outcome in [32], in [22], in data set [25] and in [27] was inactive. Besides, the ΔTm in [11] came to 0 °C. Besides, the results for the IC50 in data set [23], in data set [29] and in data set [30] were 2000 nM, 5000 nM and 8000 nM, respectively. Also, the outcome in data set [31] was Active.
For the molecule `N#Cc1cc2ccc(N3CCOCC3)cc2n2c1nc1ccccc12`, the outcome in data set [2], in data set [22] and in data set [25] was inactive. Also, in data set [11], the ΔTm amounted to 0 °C. Further, the IC50 in data set [23] came to 200 nM; in [29] it was 300 nM; in data set [30], 300 nM. Further, the outcome in data set [27] and in data set [31] was Active.
Regarding `CNc1ccc2cc(C#N)c3nc4ccccc4n3c2c1`, the IC50 in data set [23] was 200 nM; in [29], above 10000 nM; in [30] it was above 10000 nM.
Consider `COc1cc([C@@H]2c3cc4c(cc3[C@@H](O[C@@H]3O[C@@H]5CO[C@@H](C)O[C@H]5[C@H](O)[C@H]3O)[C@H]3COC(=O)[C@H]23)OCO4)cc(OC)c1O`, for which, in [1], the inhibition result is “inactive”.
`COc1cccc2c1C(=O)c1c(O)c3c(c(O)c1C2=O)C[C@@](O)(C(=O)CO)C[C@@H]3O[C@H]1C[C@H](N)[C@H](O)[C@H](C)O1` [DOXORUBICIN]: in data set [1], the inhibition at 50 µM came to 79%.
Take `CC[C@@]1(O)C(=O)OCc2c1cc1n(c2=O)Cc2cc3ccccc3nc2-1`: the inhibition entry in data set [1] was “inactive”.
